Data: patent publication US8540999B2, “Allergenic proteins and peptides from Japanese cedar pollen” (Merck Patent GmbH, priority 1991, dated 2013)
“Also recorded” adds a separate entry of the source. Ends that are not written are not given here.

Experiments:
[1] = Solubility testing of parent and truncated peptides (protocol not stated); type: physicochemical
Text: For example, the amino acid sequence of CJI-44.8 (SEQ ID NO: 132) was derived from the protein sequence of Cry j I by first identifying those regions of the parent protein with high T cell reactivity using the set of overlapping peptides 20-mers as discussed in Example 6, and shown in FIG. 13, which covered the entire sequence. […] Since these peptides were adjacent to each other in the native protein sequence and overlapped by 10 residues, peptide CJI-44 was synthesized to capture the total T cell reactivity of both peptides. CJI-44 (SEQ ID NO: 90) (FIG. 18) is a peptide 30-mer which contains all of the sequence present in the two 20-mers CJI-31 (SEQ ID NO: 54) and CJI-32 (SEQ ID NO: 56).
(§1) Additional truncation of two C-terminal residues yielded 44.2 (SEQ ID NO: ). […] Thus, 44.2 (SEQ ID NO: ) was further modified by the addition of charged (hydrophilic residues) to the N-terminus and by replacement of the hydrophobic residue Val with the less hydrophobic residue Ala. […] CJI-44.8 (SEQ ID NO: 132) was stable and soluble at greater than 5 mg/ml over the pH range pH6-pH8 in an aqueous buffer.

[2] = Solubility, single pH point protocol procedure; type: physicochemical; settings: 100 mM sodium phosphate buffer without mannitol, constant agitation
Method: as §1

[3] = Solubility, pH range protocol procedure; type: physicochemical; settings: aqueous sodium phosphate buffer, pH range pH6 to pH8
Text: (§2) Of the above group of modified peptides, several peptides have been identified as “unique” modified peptides. […] Certain modified peptides are characterized as “unique” due to the difficulties encountered when developing a modified peptide which meets all of the stringent requirements of a “unique” peptide defined herein. In many cases, multiple modifications of a parent peptide are attempted prior to identifying a modified derivitive peptide which meets all the characteristics of a “unique” modified peptide. Unique modified peptides are particularly useful as candidate peptides for formulating injectable multipeptide therapeutic formulations of the invention because “unique” modified peptides are soluble and stable in the same physiologically acceptable pH range as well as elicit the necessary T cell reactivity of a therapeutic peptide of the invention. “Unique” modified peptides of the invention include but are not limited to the following group of modified peptides: CJ1-24.5, CJ1-43.39, CJ1-43.50, CJ1-44.8, and CJ1-44.9 all as shown in FIGS. 20 and 44. Example 21 describes the development and identification of “unique” modified peptides of the invention.
as §1

[4] = Stability in aqueous buffer; type: physicochemical; settings: pH6 to pH8
Text: as §2, §1

[5] = system: Cry j II reactive T cells; assay: T cell proliferation assay, Cry j II primed T cell lines (Example 19); type: cell-based, human
Method: Long term T cell lines were established by stimulation of 2×10^6 PBL/ml in bulk cultures of complete medium (RPMI-1640, 2 mM L-glutamine, 100 U/ml penicillin/streptomycin, 5×10^−5M 2-mercaptoethanol, and 10 mM HEPES supplemented with 5% heat inactivated human AB serum) with 10 μg/ml of partially purified native Cry j II for 7 days at 37° C. in a humidified 5% CO2 incubator to select for Cry j II reactive T cells. This amount of priming antigen was determined to be optimal for the activation of T cells from most Japanese cedar pollen Cry j II allergic patients. Viable cells were purified by LSM centrifugation and cultured in complete medium supplemented with 5 units recombinant human IL-2/ml and 5 units recombinant human IL-4/ml for up to three weeks until the cells no longer responded to lymphokines and were considered “rested”. The ability of the T cells to proliferate to peptides Cry j IIA (SEQ ID NO: 185) and Cry j IIB (SEQ ID NO: 186), recombinant Cry j II (rCry j II) (SEQ ID NO: 134), purified native Cry j II, was then assessed. For assay, 2×10^4 rested cells were restimulated in the presence of 2×10^4 autologous Epstein-Barr virus (EBV)-transformed B cells (prepared as described in Example 6) (gamma-irradiated with 25,000 RADS) with 2-50 ’g/ml of rCry j II (SEQ ID NO: 134), purified native Cry j II, peptides Cry j IIA (SEQ ID NO: 185) and Cry j IIB (SEQ ID NO: 186), positive control (PHA), negative control (Amb a I.1), in a volume of […] complete medium in duplicate or triplicate wells in 96-well round bottom plates for 2-4 days. […] Each well then received 1 μCi tritiated thymidine for 16-20 hours. The counts incorporated were collected onto glass fiber filter mats and processed for liquid scintillation counting. The maximum response in a titration of each peptide is expressed as the stimulation index (S.I.). The S.I. is the counts per minute (CPM) incorporated by cells in response to peptide, divided by the CPM incorporated by cells in medium only. A positivity index may be calculated by multiplying the mean S.I. (indicated above each bar in FIGS. 42 and 43) by the percentage of individuals responding to the peptide (indicated in parentheses above each bar in FIGS. 42 and 43). […]

patients' plasma IgE = assay: Direct binding assay of IgE to Cry j I, Cry j II and recombinant Cry j II (Example 18); set-up: species or system human
Method: Costar assay plates were coated with Cry j I or Cry j II at 2 μg/mL or recombinant Cry j II preparation at 10 μg/mL (approximately 20% pure) in a volume of 50 μL overnight at 4° C. The coating antigens were removed and the wells were blocked with 0.5% gelatin, PVP (polyvinyl pyrolidine) 1 mg/mL in PBS, 200 μL/well for 2 hours at room temperature. The anti-Cry j I monoclonal antibody, 4B11, was serially diluted in PBS-Tween 20 starting at a 1:1000 dilution. The human plasma were serially diluted in PBS-Tween at a starting dilution of 1:2. For this set 23 plasma samples from patients symptomatic for Japanese cedar pollen allergy chosen for IgE binding analysis. The first antibody incubation proceeded overnight at 4° C. Following three washes with PBS-Tween the second antibodies were added (biotinylated goat anti-mouse Ig or goat anti-human IgE both at 1:2000) and incubated for two hours at room temperature at 100 μL/well. After washing 3 times, […]. This solution was removed and streptavidin-HRPO diluted to 1:10,000, was added at 100 μL/well. The color was allowed to develop for 2-5 minutes. The reaction was stopped by the addition of 100 μL/well of 1M phosphoric acid. Plates were read on a Microplate IL310 Autoreader (Biotek Instruments, Winooski, Vt.) with a 450 nm filter. The absorbance levels of duplicate wells were averaged. A positive binding result, indicated by a plus sign is determined to be a reading of two-fold or greater above background (no first antibody) at the second dilution of plasma ([…]).

IgE antibodies = settings: Sakaguchi (1990), cited from earlier work
Arthus reaction = settings: Usui et al. (1990); cited from earlier work

For NGAYFVSSGKYEGGNIYTKKEAFNVE [CJ1-44.1], the solubility ([1]; truncated analogs of CJI-44) was “solubility was improved in these sequences it still did not reach the standard”.

With NGAYFVSSGKYEGGNIYTKKEAFN [CJ1-44.2] the solubility ([1]; truncated analogs of CJI-44) was “solubility was improved in these sequences it still did not reach the standard”.

With DENGAYFVSSGKYEGGNIYTKKEAFNAE [CJ1-44.5] the solubility [2] was “increased solubility”.

For “DEENGAYFVSSGKYEGGNIYTKKEAFNVE [CJ1-44.6]”, the solubility [2] was “increased solubility”.

In the case of DVFYNGAYFVSSGKYEGGNIYTKKEAFNVE [CJ1-44], the solubility ([1]; protocol not stated, read-out: solubility) is reported as < 5 mg/mL.

In the case of DEEGAYFVSSGKYEGGNIYTKKEAFNVE [CJ1-44.8], the solubility [3] is reported as > 5 mg/mL, the solubility [2] is reported as “very soluble” and the stability [4] is reported as “stable”.

B1: purified native Cry j II: second Japanese cedar pollen allergen, purified native protein (protein)
chain: RKVEHSRHDAINIFNVEKYGAVGDGKHDCTEAFSTAWQAACKNPSAMLLVPGSKKFVVNNLFFNGPCQPHFTFKVDGIIAAYQNPASWKNNRIWLQFAKLTGFTLMGKGVIDGQGKQWWAGQCKWVNGREICNDRDRPTAIKFDFSTGLIIQGLKLMNSPEFHLVFGNCEGVKIIGISITAPRDSPNTDGIDIFASKNFHLQKNTIGTGDDCVAIGTGSSNIVIEDLICGPGHGISIGSLGRENSRAEVSYVHVNGAKFIDTQNGLRIKTWQGGSGMASHIIYENVEMINSENPILINQFYCTSASACQNQRSAVQIQDVTYKNIRGTSATAAAIQLKCSDSMPCKDIKLSDISLKLTSGKIASCLNDNANGYFSGHVIPACKNLSPSAKRKESKSHKHPKTVMVENMRAYDKGNRTRILLGSRPPNCTNKCHGCSPCKAKLVIVHRIMPQEYYPQRWICSCHGKIYHP
In the case of B1, the “T cell proliferative response” value ([5]; 9 patients, FIG. 43) is reported as “react”, the “T cell proliferative response” value ([5]; n=6 patients, FIG. 42) is reported as “respond well” and the “frequency of IgE response” value (patients' plasma IgE; 23 plasma samples, FIG. 40) is reported as “less”. For the same molecule, the “plasma IgE binding response” value (patients' plasma IgE; patient #1034) was “very strong reactivity”, the “plasma IgE binding response” value (patients' plasma IgE; patient plasma samples, FIGS. 31-33) was “binds human IgE of some allergic patients; also recorded: lower overall response” and the “immunological cross-reactivity with Cry j I” value (IgE antibodies; Kawashima et al. (1992)) was “no immunological cross-reactivity”. The “allergic patients with IgE that only reacted with this allergen” value (IgE antibodies) was 14%.

B2: Sugi basic protein (i.e., Cry j I)-pullulan conjugate: Sugi basic protein covalently linked to pullulan, Usui et al. (1990) (conjugate, UniProt P18632 22-374, looked up)
Pectate lyase 1: DNPIDSCWRGDSNWAQNRMKLADCAVGFGSSTMGGKGGDLYTVTNSDDDPVNPAPGTLRYGATRDRPLWIIFSGNMNIKLKMPMYIAGYKTFDGRGAQVYIGNGGPCVFIKRVSNVIIHGLYLYGCSTSVLGNVLINESFGVEPVHPQDGDALTLRTATNIWIDHNSFSNSSDGLVDVTLTSTGVTISNNLFFNHHKVMLLGHDDAYSDDKSMKVTVAFNQFGPNCGQRMPRARYGLVHVANNNYDPWTIYAIGGSSNPTILSEGNSFTAPNESYKKQVTIRIGCKTSSSCSNWVWQSTQDVFYNGAYFVSSGKYEGGNIYTKKEAFNVENGNATPQLTKNAGVLTCSLSKRC
modifications: pullulan conjugate
In the case of B2, the “ability to elicit the Arthus reaction, relative to native Sugi basic protein” value (Arthus reaction) is given as “about 1,000 times lower”.
